This note sets out measurements from patent US20230310441A1, “TREATMENT FOR SCHIZOPHRENIA” (TAKEDA PHARMACEUTICAL COMPANY, priority 2020, published 2023).

The nature of this data set: Phase 1 FIH study Part 4: plasma pharmacokinetics in patients with stable schizophrenia. It is filed as in vivo, human. On the procedure: Part 4 was a double-blind, weekly single dosing, parallel group design in patients with stable schizophrenia.
Participants were randomly assigned 2:1 to receive either Compound (I) or placebo. For the participants receiving Compound (I), a loading dose was administered on Day 1, and a maintenance dose, at half the initial dose, on Days 8, 15, and 22. Participants in the placebo group received placebo on all study dosing days.
Plasma and urine concentrations of Compound (I) and urine concentrations of cortisol and 6β-hydroxycortisol were measured by high performance liquid chromatography with tandem mass spectrometry. One 4 mL blood sample was collected per scheduled assessment. For participants receiving placebo, blood samples were analyzed only at pre-dose and around the time Cmax occurred (as emerging from the measurements of the first dose group) to ensure that no additional participants could have been on active treatment. Serial urine samples were collected for Part 1 cohorts 1-5 and Part 2 cohorts 1-4. Urine samples for participants receiving placebo were not analyzed. Urine samples were collected for the determination of cortisol and 6β-hydroxycortisol for Part 2 cohorts 1-4 and for all patients in Part 4. Samples for participants randomized to placebo were analyzed for these parameters.
Pharmacokinetic parameters were determined from the concentration-time profiles for all evaluable participants. Actual sampling times were used in all computations. pharmacokinetic parameters were calculated using non-compartmental analysis using Phoenix WinNonLin v8.0 or SAS v 9.4.
One participant in the 160/80 mg Compound (I) cohort in Part 4 (MRD study with patients with stable schizophrenia) missed the Day 15 dose. Pharmacokinetic concentrations for Day 22 for this participant were excluded from the mean plasma-concentration time profile and associated pharmacokinetic parameters were excluded from statistical analysis.
One participant in the 160/80 mg Compound (I) cohort in Part 4 (MRD study with patients with stable schizophrenia) terminated the study following dosing on Day 1. The participant's PK parameters were excluded from statistical analysis.
Another participant in the 160/80 mg Compound (I) cohort in Part 4 (MRD study with patients with stable schizophrenia) terminated the study following dosing on Day 22. Accordingly, all PK parameters for the participant other than tmax, Cmax, observed plasma concentration at the end of a dosing interval, AUC24, AUC48, and AUC96 were excluded from summary and statistical analysis.

Setting [1] is: stable schizophrenia, oral, 160/80 mg, Day 22, N 14.

Where two headings read alike, the source gives them in different places.

For `C[C@H](NC(=O)Cn1nnc2ccccc2c1=O)c1ccc(OC(F)(F)F)cc1` [Compound (I), (S)-2-(4-oxobenzo[d][1,2,3]triazin-3(4H)-yl)-N-(1-(4-(trifluoromethoxy)phenyl)ethyl)acetamide], under “Part 4 MRD, schizophrenia participants”, the “steady-state mean t1/2z” value was determined as 334 h. Under “Part 4 vs healthy”, the “peak systemic exposure lower in schizophrenia participants compared with healthy participants” value is given as 23-30%. Also, the “total systemic exposure lower for schizophrenia participants compared with healthy participants” value (Part 4 vs healthy) is listed as 22-27%. The Cmax is, setting by setting: (human, plasma, oral, Part 4 MRD, 160/80 mg, up to 168 h post-dose, read-out: Mean Cmax (SD)) 1270 ng/mL; (human, plasma, po, stable schizophrenia, oral, 160/80 mg, Day 1, N 15, read-out: Cmax (mean)) 1270 ng/mL; (human, plasma, po, stable schizophrenia, oral, 160/80 mg, Day 22, N 14, read-out: Cmax (mean)) 1880 ng/mL. The Tmax worked out at 1.8 h (human, plasma, oral, Part 4 MRD, schizophrenia patients, read-out: median tmax); 2 h (human, plasma, po, stable schizophrenia, oral, 160/80 mg, Day 1, N 15, read-out: tmax (median)); 1.8 h (human, plasma, po, stable schizophrenia, oral, 160/80 mg, Day 22, N 14, read-out: tmax (median)). The AUC(0-t) was determined as 149 µg·h/mL (human, plasma, po, stable schizophrenia, oral, 160/80 mg, Day 1, N 15) and 660 µg·h/mL (human, plasma, po, stable schizophrenia, oral, 160/80 mg, Day 22, N 14). For the same compound, the AUC was determined as 20.4 µg·h/mL (human, plasma, po, stable schizophrenia, oral, 160/80 mg, Day 1, N 15, read-out: AUC24 (mean)); 90.4 µg·h/mL (human, plasma, po, stable schizophrenia, oral, 160/80 mg, Day 1, N 15, read-out: AUC96 (mean)); 149 µg·h/mL (human, plasma, po, stable schizophrenia, oral, 160/80 mg, Day 1, N 15, read-out: AUCτ (mean)); 35.5 µg·h/mL (human, plasma, po, stable schizophrenia, oral, 160/80 mg, Day 22, N 14, read-out: AUC24 (mean)); 140 µg·h/mL (human, plasma, po, stable schizophrenia, oral, 160/80 mg, Day 22, N 14, read-out: AUC96 (mean)); 227 µg·h/mL (human, plasma, po, stable schizophrenia, oral, 160/80 mg, Day 22, N 14, read-out: AUCτ (mean)). Besides, the Vd/F (human, plasma, stable schizophrenia, oral, 160/80 mg, Day 22, N 14, read-out: Vz/F (mean)) came to 172 L. The “CL/F (mean)” value under setting [1] stood at 365.5 mL/h. In addition, under setting [1], the “Cav,ss (mean)” value came out at 1352.6 ng/mL. Moreover, under setting [1], the “Ctrough (mean)” value amounted to 950.4 ng/mL. Besides, the “t1/2z (mean)” value under setting [1] turned out to be 333.8 h.
